What was measured:
GST-Bcl-2 = GST-Bcl-2 (Homo sapiens, UniProt P10415); assay: TR-FRET binding assay, GST-Bcl-2 with F-Bak peptide probe; details: TR-FRET Binding Affinity, GST-Bcl-2, F-Bak peptide probe
Summary of the method: (§1)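 Competitive TR-FRET: GST-fusion protein, fluorescent Bak peptide probe and Tb-labelled anti-GST antibody incubated with compound dilution series (starting 50 μM as 2× stock, 10% DMSO) for 3 h at RT. Excitation 340/35 nm; Ki derived via Wang's exact competitive-binding equation.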

GST-Bcl-XL = GST-Bcl-XL (Homo sapiens, UniProt Q07817); assay: TR-FRET binding assay, GST-Bcl-XL with F-Bak peptide probe; details: TR-FRET Binding Affinity, GST-Bcl-XL, F-Bak peptide probe
Summary of the method: as §1

Canine platelets = assay: Platelet cell viability assay (platelet-rich plasma, Cell Titer Glo); type: cell-based; details: Canis lupus familiaris, 5 h, isolated canine platelets ex vivo, five hours at 37° C.
Description: After the incubation, platelets were equilibrated to room temperature for 20 minutes and then an equal volume of Cell Titer Glo reagent (Promega Corporation) was added. Samples were mixed for two minutes and then allowed to equilibrate for an additional 10 minutes at room temperature. The luminescence generated from the samples was quantitated using an LJL Analyst plate reader.
The effect of compounds on platelet survival can be directly evaluated ex vivo by examining the viability of isolated canine platelets in the presence of various concentrations of compound.

FL5.12/Bcl-2 cells = assay: FL5.12/Bcl-2 cell viability assay under IL-3 withdrawal (CellTitre Glo); type: cell-based, murine; details: Mus musculus, IL-3 withdrawn 48 hrs, then 24 hrs with compound
Summary of the method: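 Cells (1×10^6/ml) are washed, resuspended in medium lacking WEHI-3B conditioned medium as IL-3 source, and held 48 hrs. Compounds are then added at a range of concentrations for 24 hrs, after which CellTitre Glo reports viability.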

Sequence of GST-Bcl-2 (P10415 whole entry, the tested form may be a part): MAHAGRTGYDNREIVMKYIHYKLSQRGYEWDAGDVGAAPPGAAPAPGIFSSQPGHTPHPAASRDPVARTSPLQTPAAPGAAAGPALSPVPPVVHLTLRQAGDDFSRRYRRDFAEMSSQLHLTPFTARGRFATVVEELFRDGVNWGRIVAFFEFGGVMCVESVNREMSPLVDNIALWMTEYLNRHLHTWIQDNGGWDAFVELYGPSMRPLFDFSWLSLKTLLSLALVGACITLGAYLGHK
Sequence of GST-Bcl-XL (Q07817 whole entry): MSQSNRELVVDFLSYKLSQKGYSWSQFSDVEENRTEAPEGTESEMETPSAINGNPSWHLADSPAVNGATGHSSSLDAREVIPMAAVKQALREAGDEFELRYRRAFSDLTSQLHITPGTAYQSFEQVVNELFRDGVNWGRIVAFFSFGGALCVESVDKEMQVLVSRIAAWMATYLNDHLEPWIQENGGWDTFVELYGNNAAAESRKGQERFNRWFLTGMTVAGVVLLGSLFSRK

`CC1(C)CCC(CN2CCN(c3ccc(C(=O)NS(=O)(=O)c4ccc(NCCCN5CCCC5)c([N+](=O)[O-])c4)c(Oc4cccc5[nH]ccc45)c3)CC2)=C(c2ccc(F)cc2)C1` [Example 73, 4-(4-{[2-(4-fluorophenyl)-4,4-dimethylcyclohex-1-en-1-yl]methyl}piperazin-1-yl)-2-(1H-indol-4-yloxy)-N-({3-nitro-4-[(3-pyrrolidin-1-ylpropyl)amino]phenyl}sulfonyl)benzamide] gave a Ki (GST-Bcl-2) of 1.7 nM, a Ki (GST-Bcl-XL) of 16.9 nM and an EC50 (Canine platelets) of 23200 nM. The EC50 (FL5.12/Bcl-2 cells) was 140 nM.
Compound `CN1CCC(Nc2ccc(S(=O)(=O)NC(=O)c3ccc(N4CCN(CC5=C(c6ccc(Cl)cc6)CC(C)(C)OC5)CC4)cc3Oc3ccc4[nH]ccc4c3)cc2[N+](=O)[O-])CC1` [Example 150, 4-(4-{[4-(4-chlorophenyl)-6,6-dimethyl-5,6-dihydro-2H-pyran-3-yl]methyl}piperazin-1-yl)-2-(1H-indol-5-yloxy)-N-({4-[(1-methylpiperidin-4-yl)amino]-3-nitrophenyl}sulfonyl)benzamide] has a Ki (GST-Bcl-2) of 0.014 nM, a Ki (GST-Bcl-XL) of 9.34 nM and an EC50 (Canine platelets) of 2900 nM. The EC50 (FL5.12/Bcl-2 cells) was 6 nM.
Compound `CC(C)N(CCOc1ccc(-c2ccc(Cl)cc2)c(CN2CCN(c3ccc(C(=O)NS(=O)(=O)c4ccc(NCC5CCOCC5)c([N+](=O)[O-])c4)c(Oc4ccccc4)c3)CC2)c1)C(C)C` [Example 139, 4-[4-({4′-chloro-4-[2-(diisopropylamino)ethoxy]-1,1′-biphenyl-2-yl}methyl)piperazin-1-yl]-N-({3-nitro-4-[(tetrahydro-2H-pyran-4-ylmethyl)amino]phenyl}sulfonyl)-2-phenoxybenzamide] has a Ki (GST-Bcl-2) of 0.101 nM, a Ki (GST-Bcl-XL) of 10.4 nM and an EC50 (Canine platelets) of 38500 nM. For the same compound, the EC50 (FL5.12/Bcl-2 cells) was 46 nM.
In the case of `CN(C)CCCOc1ccc(S(=O)(=O)NC(=O)c2ccc(N3CCN(Cc4ccccc4-c4ccc(Cl)cc4)CC3)cc2Oc2ccccc2)cc1[N+](=O)[O-]` [Example 94, 4-{4-[(4′-chloro-1,1′-biphenyl-2-yl)methyl]piperazin-1-yl}-N-({4-[3-(dimethylamino)propoxy]-3-nitrophenyl}sulfonyl)-2-phenoxybenzamide], the Ki (GST-Bcl-2) is reported as 0.07 nM, the Ki (GST-Bcl-XL) is reported as 2.32 nM and the EC50 (Canine platelets) is reported as 23800 nM. It also gave an EC50 (FL5.12/Bcl-2 cells) of 40 nM.
In the case of `CN1CCN(Nc2ccc(S(=O)(=O)NC(=O)c3ccc(N4CCN(CC5=C(c6ccc(Cl)cc6)CC(C)(C)CC5)CC4)cc3Oc3ccc4[nH]ccc4c3)cc2[N+](=O)[O-])CC1` [Example 174, 4-(4-{[2-(4-chlorophenyl)-4,4-dimethylcyclohex-1-en-1-yl]methyl}piperazin-1-yl)-2-(1H-indol-5-yloxy)-N-({4-[(4-methylpiperazin-1-yl)amino]-3-nitrophenyl}sulfonyl)benzamide], the Ki (GST-Bcl-2) is reported as 0.105 nM, the Ki (GST-Bcl-XL) is reported as 62.1 nM and the EC50 (Canine platelets) is reported as 19500 nM. It also gave an EC50 (FL5.12/Bcl-2 cells) of 11 nM.
With `CN1CCC(Nc2ccc(S(=O)(=O)NC(=O)c3ccc(N4CCN(CC5=C(c6ccc(Cl)cc6)CCCCC5)CC4)cc3Oc3ccc4[nH]ccc4c3)cc2[N+](=O)[O-])CC1` [Example 151, 4-(4-{[2-(4-chlorophenyl)cyclohept-1-en-1-yl]methyl}piperazin-1-yl)-2-(1H-indol-5-yloxy)-N-({4-[(1-methylpiperidin-4-yl)amino]-3-nitrophenyl}sulfonyl)benzamide] the Ki (GST-Bcl-2) was 0.162 nM, the Ki (GST-Bcl-XL) was greater than 660 nM and the EC50 (Canine platelets) was 31400 nM. For the same compound, the EC50 (FL5.12/Bcl-2 cells) was 49 nM.
`CN(C)CCOc1cccc(-c2ccc(Cl)cc2)c1CN1CCN(c2ccc(C(=O)NS(=O)(=O)c3ccc(NCCCN4CCCC4)c([N+](=O)[O-])c3)c(Oc3ccccc3)c2)CC1` [Example 123, 4-[4-({4′-chloro-3-[2-(dimethylamino)ethoxy]-1,1′-biphenyl-2-yl}methyl)piperazin-1-yl]-N-({3-nitro-4-[(3-pyrrolidin-1-ylpropyl)amino]phenyl}sulfonyl)-2-phenoxybenzamide] gave a Ki (GST-Bcl-2) of 0.015 nM, a Ki (GST-Bcl-XL) of 1.37 nM and an EC50 (Canine platelets) of 2810 nM. It also gave an EC50 (FL5.12/Bcl-2 cells) of 87 nM.
In the case of `CN1CCC(CNc2ccc(S(=O)(=O)NC(=O)c3ccc(N4CCN(CC5=C(c6ccc(Cl)cc6)CC(C)(C)CC5)CC4)cc3Oc3ccc4[nH]ccc4c3)cc2[N+](=O)[O-])CC1` [Example 104, 4-(4-{[2-(4-chlorophenyl)-4,4-dimethylcyclohex-1-en-1-yl]methyl}piperazin-1-yl)-2-(1H-indol-5-yloxy)-N-[(4-{[(1-methylpiperidin-4-yl)methyl]amino}-3-nitrophenyl)sulfonyl]benzamide], the Ki (GST-Bcl-2) is reported as 0.077 nM, the Ki (GST-Bcl-XL) is reported as 49.1 nM and the EC50 (Canine platelets) is reported as greater than 50000 nM. The EC50 (FL5.12/Bcl-2 cells) was 21 nM.
Compound `CC1(C)CCC(CN2CCN(c3ccc(C(=O)NS(=O)(=O)c4ccc(NCCCN5CCCC5)c([N+](=O)[O-])c4)c(Oc4cccc5[nH]ccc45)c3)CC2)=C(c2ccc(OC(F)(F)F)cc2)C1` [Example 70, 4-[4-({4,4-dimethyl-2-[4-(trifluoromethoxy)phenyl]cyclohex-1-en-1-yl}methyl)piperazin-1-yl]-2-(1H-indol-4-yloxy)-N-({3-nitro-4-[(3-pyrrolidin-1-ylpropyl)amino]phenyl}sulfonyl)benzamide] has a Ki (GST-Bcl-2) of 1.19 nM, a Ki (GST-Bcl-XL) of 74.4 nM and an EC50 (Canine platelets) greater than 50000 nM. For the same compound, the EC50 (FL5.12/Bcl-2 cells) was 111 nM.
With `CN1CCC(Nc2ccc(S(=O)(=O)NC(=O)c3ccc(N4CCN(CC5=C(c6ccc(Cl)cc6)CCCCCC5)CC4)cc3Oc3cccc4[nH]ccc34)cc2[N+](=O)[O-])CC1` [Example 146, 4-(4-{[2-(4-chlorophenyl)cyclooct-1-en-1-yl]methyl}piperazin-1-yl)-2-(1H-indol-4-yloxy)-N-({4-[(1-methylpiperidin-4-yl)amino]-3-nitrophenyl}sulfonyl)benzamide] the Ki (GST-Bcl-2) was 44.2 nM, the Ki (GST-Bcl-XL) was greater than 660 nM and the EC50 (Canine platelets) was 22000 nM. The EC50 (FL5.12/Bcl-2 cells) was 152 nM.
In the case of `CN1CCC(Nc2ccc(S(=O)(=O)NC(=O)c3ccc(N4CCN(CC5=C(c6ccc(Cl)cc6)CC(C)(C)CC5)CC4)cc3Oc3cccc4[nH]ccc34)cc2[N+](=O)[O-])CC1` [Example 103, 4-(4-{[2-(4-chlorophenyl)-4,4-dimethylcyclohex-1-en-1-yl]methyl}piperazin-1-yl)-2-(1H-indol-4-yloxy)-N-({4-[(1-methylpiperidin-4-yl)amino]-3-nitrophenyl}sulfonyl)benzamide], the Ki (GST-Bcl-2) is reported as 0.056 nM, the Ki (GST-Bcl-XL) is reported as 117 nM and the EC50 (Canine platelets) is reported as 31400 nM. It also gave an EC50 (FL5.12/Bcl-2 cells) of 14 nM.
Work on `CN(C)CCOc1ccc(-c2ccc(Cl)cc2)c(CN2CCN(c3ccc(C(=O)NS(=O)(=O)c4ccc(NC5CCN(C)CC5)c([N+](=O)[O-])c4)c(Oc4ccccc4)c3)CC2)c1` [Example 133, 4-[4-({4′-chloro-4-[2-(dimethylamino)ethoxy]-1,1′-biphenyl-2-yl}methyl)piperazin-1-yl]-N-({4-[(1-methylpiperidin-4-yl)amino]-3-nitrophenyl}sulfonyl)-2-phenoxybenzamide] yielded a Ki (GST-Bcl-2) of 0.009 nM, a Ki (GST-Bcl-XL) of 0.281 nM and an EC50 (Canine platelets) of 95 nM. It also gave an EC50 (FL5.12/Bcl-2 cells) of 20 nM.
Work on `CC1(C)CCC(c2ccc(Cl)cc2)=C(CN2CCN(c3ccc(C(=O)NS(=O)(=O)c4ccc(NCCCN5CCOCC5)c([N+](=O)[O-])c4)c(Oc4cccc5[nH]ccc45)c3)CC2)C1` [Example 54, 4-(4-{[2-(4-chlorophenyl)-5,5-dimethylcyclohex-1-en-1-yl]methyl}piperazin-1-yl)-2-(1H-indol-4-yloxy)-N-({4-[(3-morpholin-4-ylpropyl)amino]-3-nitrophenyl}sulfonyl)benzamide] yielded a Ki (GST-Bcl-2) of 0.757 nM, a Ki (GST-Bcl-XL) of 82 nM and an EC50 (Canine platelets) greater than 50000 nM. The EC50 (FL5.12/Bcl-2 cells) was 64 nM.
`CN1CCN(CCCNc2ccc(S(=O)(=O)NC(=O)c3ccc(N4CCN(CC5=C(c6ccc(Cl)cc6)CC(C)(C)CC5)CC4)cc3Oc3ccc4[nH]ccc4c3)cc2[N+](=O)[O-])CC1` [Example 96, 4-(4-{[2-(4-chlorophenyl)-4,4-dimethylcyclohex-1-en-1-yl]methyl}piperazin-1-yl)-2-(1H-indol-5-yloxy)-N-[(4-{[3-(4-methylpiperazin-1-yl)propyl]amino}-3-nitrophenyl)sulfonyl]benzamide] gave a Ki (GST-Bcl-2) of 0.047 nM, a Ki (GST-Bcl-XL) of 8.78 nM and an EC50 (Canine platelets) of 22300 nM. It also gave an EC50 (FL5.12/Bcl-2 cells) of 11 nM.
Compound `CN(C)CCOc1cccc(-c2ccc(Cl)cc2)c1CN1CCN(c2ccc(C(=O)NS(=O)(=O)c3ccc(NCCCN4CCCC4)c([N+](=O)[O-])c3)c(Oc3ccc4[nH]ccc4c3)c2)CC1` [Example 134, 4-[4-({4′-chloro-3-[2-(dimethylamino)ethoxy]-1,1′-biphenyl-2-yl}methyl)piperazin-1-yl]-2-(1H-indol-5-yloxy)-N-({3-nitro-4-[(3-pyrrolidin-1-ylpropyl)amino]phenyl}sulfonyl)benzamide] has a Ki (GST-Bcl-2) of 0.052 nM, a Ki (GST-Bcl-XL) of 18 nM and an EC50 (Canine platelets) of 4720 nM. The EC50 (FL5.12/Bcl-2 cells) was 48 nM.
Compound `CN(C)CCCNc1ccc(S(=O)(=O)NC(=O)c2ccc(N3CCN(Cc4ccccc4-c4ccc(Cl)cc4)CC3)cc2Oc2ccc3ccccc3c2)cc1[N+](=O)[O-]` [Example 166, 4-{4-[(4′-chloro-1,1′-biphenyl-2-yl)methyl]piperazin-1-yl}-N-[(4-{[3-(dimethylamino)propyl]amino}-3-nitrophenyl)sulfonyl]-2-(2-naphthyloxy)benzamide] has a Ki (GST-Bcl-2) of 0.459 nM, a Ki (GST-Bcl-XL) of 3.27 nM and an EC50 (Canine platelets) greater than 50000 nM. The EC50 (FL5.12/Bcl-2 cells) was 153 nM.

Reference: patent US9073855B2, “BCL-2 selective apoptosis-inducing agents for the treatment of cancer and immune diseases” (AbbVie Inc., priority 2008, dated 2015)
